Drawing on patent US20050080096A1, “Condensed heterocyclic compounds” (priority 2002, published 2005), this text covers IC50 for 4 molecules.

For this test, the target named is recombinant human PARP (Homo sapiens, UniProt P09874). The test can be described thus: PARP Inhibitory Activity (In vitro assay). It is filed as biochemical. Conditions: 32P-NAD, activated DNA, 15 minutes at room temperature, pH8.0. The method, then: The recombinant human PARP (5.3 mg protein/ml) were incubated with a test compound in a 100 μl reaction buffer containing the indicated concentration of 1 mCi/ml ^32P-NAD, 50 mM Tris-HCl, 25 mM MgCl2, 1 mM DTT (dithiothreitol), 0.05 mM NAD (nicotinamido adenine dinucleotide), lmg/mi activated DNA, pH8.0. Incubation was for 15 minutes at a room temperature and the reaction was stopped by the addition of 200 μl of ice-cold 20% trichloroacetic acid followed by rapid filtration through GF/B filters. The filters were treated with scintillation fluid and acid-insoluble counts were measured for quantification of unit activity.
PARP Inhibitory Activity (%)=
[1-(enzyme activity with test compound)/(enzyme activity with vehicle)]×100

Chain of recombinant human PARP (P09874 whole entry): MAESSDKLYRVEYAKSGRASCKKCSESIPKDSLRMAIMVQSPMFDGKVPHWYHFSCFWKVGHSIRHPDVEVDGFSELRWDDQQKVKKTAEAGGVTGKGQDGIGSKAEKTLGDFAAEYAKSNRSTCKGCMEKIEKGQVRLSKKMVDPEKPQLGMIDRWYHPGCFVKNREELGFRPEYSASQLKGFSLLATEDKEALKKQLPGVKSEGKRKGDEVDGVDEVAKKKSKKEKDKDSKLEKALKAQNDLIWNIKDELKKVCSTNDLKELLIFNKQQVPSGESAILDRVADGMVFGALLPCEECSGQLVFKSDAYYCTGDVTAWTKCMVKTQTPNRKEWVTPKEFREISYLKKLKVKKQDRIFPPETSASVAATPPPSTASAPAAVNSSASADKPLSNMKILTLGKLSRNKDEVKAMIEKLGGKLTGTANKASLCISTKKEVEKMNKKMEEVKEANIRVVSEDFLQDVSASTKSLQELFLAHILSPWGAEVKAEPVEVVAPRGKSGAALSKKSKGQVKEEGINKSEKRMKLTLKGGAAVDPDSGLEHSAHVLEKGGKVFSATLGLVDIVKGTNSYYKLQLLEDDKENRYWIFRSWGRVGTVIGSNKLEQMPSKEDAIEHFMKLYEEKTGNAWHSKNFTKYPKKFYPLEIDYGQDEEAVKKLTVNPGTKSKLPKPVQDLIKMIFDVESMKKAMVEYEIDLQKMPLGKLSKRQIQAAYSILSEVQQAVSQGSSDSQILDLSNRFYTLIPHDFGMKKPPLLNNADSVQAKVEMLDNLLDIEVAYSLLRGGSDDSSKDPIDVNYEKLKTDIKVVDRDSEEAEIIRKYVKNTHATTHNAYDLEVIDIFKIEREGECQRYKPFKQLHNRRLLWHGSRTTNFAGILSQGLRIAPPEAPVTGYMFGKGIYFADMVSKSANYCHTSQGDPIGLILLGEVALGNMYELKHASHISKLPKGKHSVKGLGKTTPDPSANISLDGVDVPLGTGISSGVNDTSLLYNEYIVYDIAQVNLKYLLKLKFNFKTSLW

As a reminder, the IC50 is the point on the concentration scale where inhibition reaches its midpoint. Turning to `O=c1[nH]c(CCCN2CC=C(c3ccccc3)CC2)nc2c1CCCC2` [Compound A, 2-[3-(4-Phenyl-3,6-dihydro-1(2H)-pyridyl)propyl]-5,6,7,8-tetrahydro-4(3H)-quinazolinone], the concentration for half-maximal inhibition (IC50) was under 500 nM.
Take `O=c1[nH]c(CCCN2CC=C(c3ccccc3)CC2)nc2c1CSCC2` [Compound B, 2-[3-(4-Phenyl-3,6-dihydro-1(2H)-pyridyl)propyl]-3,5,7,8-tetrahydro4H-thiopyrano[4,3-d]pyrimidin-4-one]: the IC50 was under 500 nM.
To `O=c1[nH]nc(CCCCN2CC=C(c3ccccc3)CC2)c2ccccc12` [Compound C, 4-[4-(4-Phenyl-3,6dihydro-1(2H)-pyridyl)butyl]-1(2H)-phthalazinone] belongs under 500 nM.
To `Cn1c2c(c3ccccc31)CCN(CCCCc1n[nH]c(=O)c3ccccc13)C2` [Compound D] belongs under 500 nM.
